Measured values as given in ChEMBL document CHEMBL4610046, “Diacyl disulfides as the precursors for hydrogen persulfide (H2S2)” (Bioorg Med Chem Lett, 2020).
Active and inactive are the calls of the source. The calls are words filed in the database; no cut-off is given here.

Key:
[1] = Induction of DPPH reduction by H2S2 generated from parent compound by UV spectrometry; parameters: scale not given: the % may be the effect or the level left
[2] = Stability of compound in DCM incubated at room temperature; assay type: physicochemical
[3] = Drug metabolism in PBS buffer assessed as hydrolysis at pH 7.4 in presence of 25 uM CTAB by DSP-3 probe based fluorescence assay; assay type: physicochemical
[4] = Stability of compound assessed as compound decomposition at 4 degree C measured after 3 weeks; assay type: physicochemical; conditions: 504 h
[5] = Stability of compound in THF incubated at room temperature; assay type: physicochemical
[6] = GSH reactivity in human PC3 cells under physiological conditions; assay type: ADME, cell-based; conditions: pc-3
[7] = tested on: PC-3; assay: Induction of H2S2 generation in human PC3 cells at 100 uM measured after 30 mins by DSP-3 probe based fluorescence assay; assay type: functional, cell-based
[8] = tested on: HeLa; assay: Induction of H2S generation in human HeLa cells at 100 uM pretreated with thiol blocking reagent NEM for 30 mins followed by lysine treatment for 20 mins and subsequent compound treatment after 30 mins by DSP-3 probe based fluorescence assay; assay type: functional, cell-based
[9] = tested on: HeLa; assay: Induction of H2S2 generation in human HeLa cells at 100 uM pretreated with thiol blocking reagent NEM for 30 mins followed by lysine treatment for 20 mins and subsequent compound treatment after 30 mins by DSP-3 probe based fluorescence assay; assay type: functional, cell-based
[10] = Cysteine reactivity in human PC3 cells under physiological conditions; assay type: ADME, cell-based; conditions: pc-3
[11] = tested on: PC-3; assay: Induction of H2S generation in human PC3 cells at 100 uM measured after 30 mins by DSP-3 probe based fluorescence assay; assay type: functional, cell-based
[12] = tested on: HeLa; assay: Induction of H2S2 generation in human HeLa cells at 100 uM measured after 30 mins by DSP-3 probe based fluorescence assay; assay type: functional, cell-based
[13] = tested on: PC-3; assay: Induction of H2S2 generation in human PC3 cells at 100 uM pretreated with thiol blocking reagent NEM for 30 mins followed by lysine treatment for 20 mins and subsequent compound treatment after 30 mins by DSP-3 probe based fluorescence assay; assay type: functional, cell-based
[14] = tested on: PC-3; assay: Induction of H2S generation in human PC3 cells at 100 uM pretreated with thiol blocking reagent NEM for 30 mins followed by lysine treatment for 20 mins and subsequent compound treatment after 30 mins by DSP-3 probe based fluorescence assay; assay type: functional, cell-based
[15] = tested on: HeLa; assay: Induction of H2S generation in human HeLa cells at 100 uM measured after 30 mins by DSP-3 probe based fluorescence assay; assay type: functional, cell-based

Structure (SMILES) | Activity [1] [%] | Stability [2] | Stability [4] | Stability [5] | other results
CC[Si](CC)(CC)OC(SSC(O[Si](CC)(CC)CC)C(C)C)C(C)C (centres undefined) | 30 | – | – | – | –
CC(C)(C(=O)SSC(=O)C(C)(C)c1ccccc1)c1ccccc1 | – | Stable | Stable | Stable | Drug metabolism [3]: Metabolite_Notdetected
NCCN | 40 | – | – | – | –
CC[Si](CC)(CC)OC(S)C(C)C (centres undefined) | 15 | – | – | – | –
O=C(Cc1ccccc1)SSC(=O)Cc1ccccc1 | – | Stable | Stable | Stable | –
CC(=O)SSC(C)=O | 40 | Stable | Stable | Stable | Drug metabolism [6]: Active; Activity [7]: Active; Activity [8]: Active; Activity [9]: Active; Drug metabolism [10]: Active; Activity [11]: Active; Activity [12]: Active; Activity [13]: Active; Activity [14]: Active; Activity [15]: Active
